# Values of other authors, collected in patent EP2143418A1, “Antiperspirant compositions” (Unilever PLC, priority 2008, dated 2010).
# System: Staphylococcus epidermidis
# Conditions: 80% or greater reduction in growth of inoculum, 16 to 24 hours at 37°C
row,MIC,Structure (SMILES)
1,greater than 1 mg.ml^-1,CCO [ethanol]
2,ca. 25 µg.ml^-1,"CC(C)=CCCC(C)=CCCC(C)=CCO [farnesol, 3,7,11-trimethyldodeca-2,6,10-trienol]"

row,Structure (SMILES),MIC
1,"Oc1cc(Cl)ccc1Oc1ccc(Cl)cc1Cl [triclosan, 2',4,4'-trichloro,2-hydroxy-diphenyl ether]",0.01 to 10 µg/mL
